One assay deals with T1, HIV-1 integrase (Human immunodeficiency virus type 1 group M subtype B, UniProt P04585).
T1 construct: HIV-1 integrase
Briefly: HIV Integrase Substrate Cleavage and Integration Assay (trimming of the 3' end of HIV long terminal repeat terminus). It is filed as biochemical. The following applies: inhibition of HIV integrase substrate cleavage; inhibitor 0.1 to 100 μM. The procedure:
HIV Integrase Substrate Cleavage and Integration Assay
An assay for trimming of the 3' end of HIV long terminal repeat terminus by HIV-1 integrase was conducted according to LaFemina, R. L. et al., J. Virol 10, 5624 (1991), herein incorporated by reference for these purposes. To assay inhibition of HIV integrase substrate cleavage, the reaction was conducted with inhibitor having various concentrations in the range of 0.1 to 100 μM.

A further assay has as its target T2, HIV integrase (Human immunodeficiency virus type 1 group M subtype B, UniProt P04585).
T2 construct: strand transfer by HIV integrase
Description: Strand Transfer Assay for HIV Integrase (ligation of processed donor (HIV) DNA to nicked host DNA). It is filed as biochemical. The note with it: inhibition of strand transfer; inhibitor 0.1 to 100 μM. As for the experimental part:
Strand Transfer Assay for HIV Integrase
A microtiter assay for ligation of processed donor (HIV) DNA to unspecific, nicked host DNA was conducted according to Hazuda, D. J. et al., Nucl. Acids, Res. 22, 1121 (1994), herein incorporated by reference for these purposes. To assay inhibition of such strand transfer by HIV integrase, the reaction was conducted with inhibition having various concentrations in the range of 0.1 to 100 μM.

Assay [1] deals with T3, HIV Integrase/donor (HIV) DNA complexes (Human immunodeficiency virus type 1 group M subtype B, UniProt P04585).
T3 construct: strand transfer by HIV integrase
Briefly: Assay for Assembly of HIV Integrase/donor (HIV) DNA Complexes. The following applies: inhibition of assembly or binding to immobilized donor (HIV) DNA; inhibitor 0.1 to 100 μM. The procedure:
Assay for Assembly of HIV Integrase/donor (HIV) DNA Complexes
An assay measuring the binding of HIV Integrase to immobilized donor (HIV) DNA was conducted according to Wolfe, A. L. et al., J. Virol. 70, 1424 (1996), herein incorporated by reference for these purposes. To assay inhibition of such assembly or binding, the reaction was conducted with inhibitor having various concentrations in the range of 0.1 to 100 μM. Results follow.

The term IC50 denotes the concentration needed to halve the response being measured. As to `C=C(C=O)C1CC2(C)C(=CC1=O)C(OC(=O)C(C)=CC(C)CCCC)CCC2C(=O)O` (stereo not drawn) [Compound A], the half-inhibitory concentration (IC50) was 5 to 10 µM against HIV-1 integrase, 5 to 10 µM at HIV integrase and 10 µM in assay [1].

(Values after US5858738A, “Ermophilane sesquiterpenoids as HIV intergrase inhibitors” (Merck & Co., Inc., priority 1997, dated 1999).)
